The record followed here is paper PMC10828244, “Covalently Binding Adenosine A3 Receptor Agonist ICBM Irreversibly Reduces Voltage-Gated Ca^2+ Currents in Dorsal Root Ganglion Neurons” (Purinergic Signalling, 2023).

Test [1] deals with T1, adenosine A3 receptor (A3AR) (Rattus norvegicus, UniProt P28647).
T1 construct: gene Adora3; native receptor in isolated rat DRG neurons
T1 sequence (P28647 1-320): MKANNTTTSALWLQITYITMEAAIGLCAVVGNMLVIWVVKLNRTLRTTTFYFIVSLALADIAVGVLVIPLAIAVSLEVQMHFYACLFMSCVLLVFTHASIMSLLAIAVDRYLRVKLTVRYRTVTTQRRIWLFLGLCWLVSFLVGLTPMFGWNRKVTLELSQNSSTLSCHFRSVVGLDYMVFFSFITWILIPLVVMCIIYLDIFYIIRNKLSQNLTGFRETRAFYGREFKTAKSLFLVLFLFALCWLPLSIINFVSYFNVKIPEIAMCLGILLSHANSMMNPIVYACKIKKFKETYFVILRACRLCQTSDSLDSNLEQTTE
Nature of the test: whole-cell patch clamp of Ca2+ currents in rat DRG neurons; washout, MRS1523 block and occlusion of Cl-IB-MECA. The test is classed as cell-based. (In patch-clamp work, channel activity is measured electrically.)

For test [2], the target named is T1, adenosine A3 receptor (A3AR). Nature of the test: whole-cell patch clamp of Ca2+ currents in rat DRG neurons ([…]); effect occluded by ICBM pre-incubation. Format: cell-based.

Turning to `CNC(=O)[C@H]1O[C@@H](n2cnc3c(NCc4cccc(N=C=S)c4)ncnc32)[C@H](O)[C@@H]1O` [ICBM, N^6-(3-Isothiocyanatobenzyl)-5′-N-methylcarboxamidoadenosine], the EC50 in test [1] was found to be 11.7 nM.
Regarding `CNC(=O)[C@H]1O[C@@H](n2cnc3c(NCc4cccc(I)c4)nc(Cl)nc32)[C@H](O)[C@@H]1O` [Cl-IB-MECA, 2-Chloro-N^6-(3-iodobenzyl)-adenosine-5′-N-methyluronamide], the “whole-cell patch clamp of Ca2+ currents in rat DRG neurons (30 nM); effect occlu” value in test [2] is given as “the prototypical A3AR agonist, Cl-IB-MECA, significantly decreases ICa (Fig. 2A–B) in these cells”.

What is called EC50 is the concentration giving half of the maximal effect.
